Test results taken from paper PMC5929447 (Oncotarget, 2018).
Like-named read-outs stand apart in the source and are kept apart here.

Columns and labels:
BCL-XL = BCL-XL (Homo sapiens, UniProt Q07817); assay: Isothermal titration calorimetry (ITC), BCL-XL; type: binding; conditions: 25 °C; read-out: ITC_BCL-XL_KD
Method: The protein was dialyzed prior to use in 2 L of 25 mM HEPES, 150 mM NaCl, 5% glycerol (v/v), 0.5% MTG (v/v) at pH 7.4 for 3 hours at room temperature. The protein was dialyzed using a 3.5 K MWCO Slide-A-Lyzer™ cassette. The protein solution was recovered, spin-filtered through a […] frit. The filtered protein was quantified by UV absorbance at 280 nm using an extinction coefficient of 36440 M^-1cm^-1. 500 ml of dialysis buffer was retained (remainder used to rinse out SCHOT bottle) and degassed for a minimum of 30 mins under vacuum with constant stirring. […] The solutions were carefully matched to ensure same solvent and buffer conditions were present in both syringe and cell (this is to minimize heat of dilution effects). The final solution was the dialysis buffer plus 1% DMSO and 0.05% P20. The experiment was performed over 13 injections with stirring at 1000 rpm, gain setting low and at 25° C. Pure water was used in the reference cell. The first injection was 0.5 μl with a duration of 1 second with a gap of 150 seconds until the further 12 injections of 3.05 μl with a duration 6.1 seconds and a 240 second interval between injections. Data was analyzed using the vendor supplied software, PEAQ-ITC Analysis Software. The data model used was the single site model. The data shown is the average of 2 or 3 independent experiments.

[1] = system: primary Mantle Cell Lymphoma cells; assay: Apoptosis (annexin V flow cytometry) in primary MCL cells; type: cell-based; conditions: Homo sapiens, 24 h
Method: Peripheral blood samples from CLL patients were obtained with informed patient consent and local ethical committee approval (UHL-09723). […] Interphase fluorescence in situ hybridization (FISH) was performed for detection of 17p13 deletion. Mantle cell lymphoma (MCL) primary cells were obtained after informed consent from MCL patients treated at the department of clinical hematology from the University Hospital of Nantes, France. Peripheral MCL cells from blood or pleural effusion, were purified after Ficoll-Hypaque separation with immuno-magnetic anti-CD19 beads (Miltenyi, Paris, France). Primary cells were cultured in RPMI-1640 supplemented with 10% FCS and 2 mM glutamine. Human platelets were isolated from citrate blood donated by healthy volunteers. Washed platelets were cultured in Hepes-buffered saline (HBS, 10 mM Hepes, 150 mM NaCl, 5 mM KCl, 1 mM MgSO4, pH 7.4). […] EC50 values were calculated using GraphPadPrism (non-linear fit, sigmoidal dose response, variable slope). […] Cell death was assessed in the CD19+ primary MCL cells by annexinV-FITC staining combined with an analysis of altered cellular morphology (lower FCS). Fluorescence was analyzed on FACSCalibur.

Sequence of BCL-XL (Q07817 whole entry): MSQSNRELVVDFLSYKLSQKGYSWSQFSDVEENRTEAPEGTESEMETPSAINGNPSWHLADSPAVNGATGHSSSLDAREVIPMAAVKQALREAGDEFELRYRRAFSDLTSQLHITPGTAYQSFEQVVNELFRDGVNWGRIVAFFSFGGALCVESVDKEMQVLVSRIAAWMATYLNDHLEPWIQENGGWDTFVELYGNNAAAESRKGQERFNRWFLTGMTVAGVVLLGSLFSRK

Kd (BCL-XL): 186 nM | EC50 ([1]; 8 patients, 24 h of treatment, read-out: EC50 apoptosis in primary MCL cells, range over patients): 2.5 to 110 nM | EC50 ([1]; read-out: EC50 S55746 primary MCL cells, patient MCL2, 24 h): 15 nM | EC50 ([1]; read-out: EC50 S55746 primary MCL cells, patient MCL3, 24 h): 12 nM | EC50 ([1]; read-out: EC50 S55746 primary MCL cells, patient MCL4, 24 h): 12 nM | EC50 ([1]; read-out: EC50 S55746 primary MCL cells, patient MCL5, 24 h): 5 nM | EC50 ([1]; read-out: EC50 S55746 primary MCL cells, patient MCL6, 24 h): 4 nM | EC50 ([1]; read-out: EC50 S55746 primary MCL cells, patient MCL7, 24 h): 3 nM | EC50 ([1]; read-out: EC50 S55746 primary MCL cells, patient MCL8, 24 h): 2.5 nM
SMILES: O=C(c1cc(-c2cc3c(cc2C(=O)N2Cc4ccccc4C[C@H]2CN2CCOCC2)OCO3)n2c1CCCC2)N(c1ccccc1)c1ccc(O)cc1 [S55746]
